Results as given in the supplement of paper PMC10307832.

Columns and labels:
Assay in all cases: relative viability (nuclei count vs DMSO), 5 days (fraction); higher = more cells survive
[1] = test system: 201T
Procedure, shortened: (§1)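 Lung cancer cell lines in 1536-well plates were dosed by pin tool the day after seeding, either with one drug alone or with a fixed anchor-drug dose plus five library-drug doses (not always all listed) in √10 steps. After 5 days, cells were fixed and their nuclei stained in one step (final 0.05% Triton X-100, 1% formaldehyde, 1 ug/ml Hoechst), then counted on 4× images. Relative viability is the nuclei count in treated wells divided by that in vehicle wells. Values are medians of duplicate plates.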

[2] = test system: NCI-H23
Procedure, shortened: as §1

[3] = test system: NCI-H1650
Procedure, shortened: as §1

[4] = test system: NCI-H647
Procedure, shortened: as §1

[5] = test system: COR-L23
Procedure, shortened: as §1

[6] = test system: NCI-H1651
Procedure, shortened: as §1

[7] = test system: LCLC-103H
Procedure, shortened: as §1

[8] = test system: NCI-H520
Procedure, shortened: as §1

[9] = test system: LK-2
Procedure, shortened: as §1

[10] = test system: RERF-LC-KJ
Procedure, shortened: as §1

[11] = test system: HARA
Procedure, shortened: as §1

[12] = test system: NCI-H2347
Procedure, shortened: as §1

[13] = test system: PC-3 [JPC-3]
Procedure, shortened: as §1

[14] = test system: NCI-H2405
Procedure, shortened: as §1

[15] = test system: UMC-11
Procedure, shortened: as §1

[16] = test system: NCI-H838
Procedure, shortened: as §1

[17] = test system: LCLC-97TM1
Procedure, shortened: as §1

[18] = test system: HCC-78
Procedure, shortened: as §1

[19] = test system: A-427
Procedure, shortened: as §1

[20] = test system: NCI-H1793
Procedure, shortened: as §1

[21] = test system: LXF-289
Procedure, shortened: as §1

[22] = test system: LOU-NH91
Procedure, shortened: as §1

[23] = test system: NCI-H522
Procedure, shortened: as §1

SMILES: CN1CCN(CCOc2cc(OC3CCOCC3)c3c(Nc4c(Cl)ccc5c4OCO5)ncnc3c2)CC1 [Saracatinib] + CS(=O)(=O)N1CCN(Cc2cc3nc(-c4cccc5[nH]ncc45)nc(N4CCOCC4)c3s2)CC1 [Pictilisib] (partner 1 µM)
- relative viability ([1]; first compound 0.02 µM): 0.702
- relative viability ([1]; first compound 0.2 µM): 0.627
- relative viability ([1]; first compound 0.6325 µM): 0.603
- relative viability ([1]; first compound 2 µM): 0.554
- relative viability ([2]; first compound 0.02 µM): 0.517
- relative viability ([2]; first compound 0.6325 µM): 0.424
- relative viability ([2]; first compound 2 µM): 0.35
- relative viability ([3]; first compound 0.02 µM): 0.626
- relative viability ([3]; first compound 0.2 µM): 0.468
- relative viability ([3]; first compound 0.6325 µM): 0.377
- relative viability ([3]; first compound 2 µM): 0.314
- relative viability ([4]; first compound 0.02 µM): 0.386
- relative viability ([4]; first compound 0.2 µM): 0.387
- relative viability ([4]; first compound 0.6325 µM): 0.425
- relative viability ([4]; first compound 2 µM): 0.216
- relative viability ([5]; first compound 0.02 µM): 0.721
- relative viability ([5]; first compound 0.2 µM): 0.568
- relative viability ([5]; first compound 0.6325 µM): 0.75
- relative viability ([5]; first compound 2 µM): 0.675
- relative viability ([6]; first compound 0.02 µM): 0.507
- relative viability ([6]; first compound 0.2 µM): 0.499
- relative viability ([6]; first compound 0.6325 µM): 0.563
- relative viability ([6]; first compound 2 µM): 0.5
- relative viability ([7]; first compound 0.02 µM): 0.547
- relative viability ([7]; first compound 0.2 µM): 0.671
- relative viability ([7]; first compound 0.6325 µM): 0.649
- relative viability ([7]; first compound 2 µM): 0.455
- relative viability ([8]; first compound 0.02 µM): 0.321
- relative viability ([8]; first compound 0.2 µM): 0.263
- relative viability ([8]; first compound 0.6325 µM): 0.273
- relative viability ([8]; first compound 2 µM): 0.228
- relative viability ([9]; first compound 0.02 µM): 0.563
- relative viability ([9]; first compound 0.2 µM): 0.316
- relative viability ([9]; first compound 0.6325 µM): 0.413
- relative viability ([9]; first compound 2 µM): 0.302
- relative viability ([10]; first compound 0.02 µM): 0.503
- relative viability ([10]; first compound 0.2 µM): 0.521
- relative viability ([10]; first compound 0.6325 µM): 0.604
- relative viability ([10]; first compound 2 µM): 0.362
- relative viability ([11]; first compound 0.02 µM): 0.37
- relative viability ([11]; first compound 0.6325 µM): 0.374
- relative viability ([11]; first compound 2 µM): 0.118
- relative viability ([12]; first compound 0.02 µM): 0.654
- relative viability ([12]; first compound 0.2 µM): 0.6
- relative viability ([12]; first compound 0.6325 µM): 0.772
- relative viability ([12]; first compound 2 µM): 0.527
- relative viability ([13]; first compound 0.02 µM): 0.782
- relative viability ([13]; first compound 0.2 µM): 0.613
- relative viability ([13]; first compound 0.6325 µM): 0.475
- relative viability ([13]; first compound 2 µM): 0.395
- relative viability ([14]; first compound 0.02 µM): 0.441
- relative viability ([14]; first compound 0.2 µM): 0.366
- relative viability ([14]; first compound 0.6325 µM): 0.352
- relative viability ([14]; first compound 2 µM): 0.22
- relative viability ([15]; first compound 0.02 µM): 0.691
- relative viability ([15]; first compound 0.6325 µM): 0.836
- relative viability ([15]; first compound 2 µM): 0.679
- relative viability ([16]; first compound 0.02 µM): 0.351
- relative viability ([16]; first compound 0.2 µM): 0.447
- relative viability ([16]; first compound 0.6325 µM): 0.344
- relative viability ([16]; first compound 2 µM): 0.326
- relative viability ([17]; first compound 0.02 µM): 0.231
- relative viability ([17]; first compound 0.2 µM): 0.12
- relative viability ([17]; first compound 0.6325 µM): 0.193
- relative viability ([17]; first compound 2 µM): 0.186
- relative viability ([18]; first compound 0.02 µM): 0.242
- relative viability ([18]; first compound 0.2 µM): 0.154
- relative viability ([18]; first compound 0.6325 µM): 0.178
- relative viability ([18]; first compound 2 µM): 0.21
- relative viability ([19]; first compound 0.02 µM): 0.652
- relative viability ([19]; first compound 0.2 µM): 0.571
- relative viability ([19]; first compound 0.6325 µM): 0.767
- relative viability ([19]; first compound 2 µM): 0.616
- relative viability ([20]; first compound 0.02 µM): 0.345
- relative viability ([20]; first compound 0.2 µM): 0.213
- relative viability ([20]; first compound 0.6325 µM): 0.41
- relative viability ([20]; first compound 2 µM): 0.408
- relative viability ([21]; first compound 0.02 µM): 0.715
- relative viability ([21]; first compound 0.2 µM): 0.731
- relative viability ([21]; first compound 0.6325 µM): 0.8
- relative viability ([21]; first compound 2 µM): 0.472
- relative viability ([22]; first compound 0.02 µM): 0.535
- relative viability ([22]; first compound 0.2 µM): 0.442
- relative viability ([22]; first compound 0.6325 µM): 0.502
- relative viability ([22]; first compound 2 µM): 0.437

SMILES: CN1CCN(CCOc2cc(OC3CCOCC3)c3c(Nc4c(Cl)ccc5c4OCO5)ncnc3c2)CC1 [Saracatinib] + NC(=O)Nc1cc(-c2cccc(F)c2)sc1C(=O)N[C@H]1CCCNC1 [AZD7762] (partner 0.2 µM)
- relative viability ([1]; first compound 0.02 µM): 0.554
- relative viability ([1]; first compound 0.2 µM): 0.446
- relative viability ([1]; first compound 0.6325 µM): 0.623
- relative viability ([1]; first compound 2 µM): 0.625
- relative viability ([2]; first compound 0.02 µM): 0.243
- relative viability ([2]; first compound 0.6325 µM): 0.287
- relative viability ([2]; first compound 2 µM): 0.27
- relative viability ([4]; first compound 0.02 µM): 0.564
- relative viability ([4]; first compound 0.2 µM): 0.509
- relative viability ([4]; first compound 0.6325 µM): 0.507
- relative viability ([4]; first compound 2 µM): 0.354
- relative viability ([6]; first compound 0.02 µM): 0.549
- relative viability ([6]; first compound 0.2 µM): 0.359
- relative viability ([6]; first compound 0.6325 µM): 0.514
- relative viability ([6]; first compound 2 µM): 0.436
- relative viability ([7]; first compound 0.02 µM): 0.855
- relative viability ([7]; first compound 0.2 µM): 0.711
- relative viability ([7]; first compound 0.6325 µM): 0.821
- relative viability ([7]; first compound 2 µM): 0.772
- relative viability ([9]; first compound 0.02 µM): 0.391
- relative viability ([9]; first compound 0.2 µM): 0.219
- relative viability ([9]; first compound 0.6325 µM): 0.262
- relative viability ([9]; first compound 2 µM): 0.133
- relative viability ([10]; first compound 0.02 µM): 1.13
- relative viability ([10]; first compound 0.2 µM): 0.971
- relative viability ([10]; first compound 2 µM): 1
- relative viability ([11]; first compound 0.02 µM): 0.413
- relative viability ([11]; first compound 0.2 µM): 0.345
- relative viability ([11]; first compound 0.6325 µM): 0.247
- relative viability ([11]; first compound 2 µM): 0.355
- relative viability ([12]; first compound 0.02 µM): 0.828
- relative viability ([12]; first compound 0.2 µM): 0.663
- relative viability ([12]; first compound 0.6325 µM): 0.623
- relative viability ([12]; first compound 2 µM): 0.657
- relative viability ([13]; first compound 0.02 µM): 0.859
- relative viability ([13]; first compound 0.2 µM): 0.638
- relative viability ([13]; first compound 0.6325 µM): 0.573
- relative viability ([13]; first compound 2 µM): 0.448
- relative viability ([14]; first compound 0.02 µM): 0.702
- relative viability ([14]; first compound 0.2 µM): 0.594
- relative viability ([14]; first compound 0.6325 µM): 0.554
- relative viability ([14]; first compound 2 µM): 0.388
- relative viability ([16]; first compound 0.02 µM): 0.957
- relative viability ([16]; first compound 0.2 µM): 0.886
- relative viability ([16]; first compound 0.6325 µM): 0.989
- relative viability ([16]; first compound 2 µM): 0.852
- relative viability ([17]; first compound 0.02 µM): 0.294
- relative viability ([17]; first compound 0.6325 µM): 0.398
- relative viability ([17]; first compound 2 µM): 0.265
- relative viability ([18]; first compound 0.02 µM): 0.583
- relative viability ([18]; first compound 0.6325 µM): 0.774
- relative viability ([18]; first compound 2 µM): 0.421
- relative viability ([19]; first compound 0.02 µM): 0.759
- relative viability ([19]; first compound 0.2 µM): 0.636
- relative viability ([19]; first compound 0.6325 µM): 0.611
- relative viability ([19]; first compound 2 µM): 0.569
- relative viability ([20]; first compound 0.02 µM): 0.304
- relative viability ([20]; first compound 0.2 µM): 0.233
- relative viability ([20]; first compound 0.6325 µM): 0.312
- relative viability ([20]; first compound 2 µM): 0.26
- relative viability ([23]; first compound 0.02 µM): 0.961
- relative viability ([23]; first compound 0.2 µM): 0.809
- relative viability ([23]; first compound 0.6325 µM): 0.807
- relative viability ([23]; first compound 2 µM): 0.822
- relative viability ([21]; first compound 0.02 µM): 1.12
- relative viability ([21]; first compound 0.2 µM): 1.09
- relative viability ([21]; first compound 0.6325 µM): 1.12
- relative viability ([21]; first compound 2 µM): 1.1
- relative viability ([22]; first compound 0.02 µM): 0.785
- relative viability ([22]; first compound 0.2 µM): 0.722
- relative viability ([22]; first compound 0.6325 µM): 0.745
- relative viability ([22]; first compound 2 µM): 0.598
